Key:
PC-3 cells = experiment: In vitro migration (wound closure) assay in PC-3 cells; format: cell-based; settings: Homo sapiens, PC-3, 24 hours, compared to the control, read-out: inhibition of migration of PC-3 cells
Method: PC3 cells were cultured to confluence at >90% in 6 well culture dishes in 10% FBS RPMI1640 media the day before the assay. Lines were drawn with a marker on the bottom of the dishes. Using a sterile 1 mL pipet tip, the dishes were scratched three separate wounds through the cells moving perpendicular to the line drawn in the step above. The cells were rinsed with PBS twice very gently and added the RPMI1640 media, and the dishes were taken pictures using phase contrast under Leica DMI3000B microscope.

P450 2C9 = P450 2C9 (Homo sapiens, UniProt P11712); experiment: P450 inhibition at 10 μM; format: in vitro ADME
Chain of P450 2C9 (P11712 whole entry): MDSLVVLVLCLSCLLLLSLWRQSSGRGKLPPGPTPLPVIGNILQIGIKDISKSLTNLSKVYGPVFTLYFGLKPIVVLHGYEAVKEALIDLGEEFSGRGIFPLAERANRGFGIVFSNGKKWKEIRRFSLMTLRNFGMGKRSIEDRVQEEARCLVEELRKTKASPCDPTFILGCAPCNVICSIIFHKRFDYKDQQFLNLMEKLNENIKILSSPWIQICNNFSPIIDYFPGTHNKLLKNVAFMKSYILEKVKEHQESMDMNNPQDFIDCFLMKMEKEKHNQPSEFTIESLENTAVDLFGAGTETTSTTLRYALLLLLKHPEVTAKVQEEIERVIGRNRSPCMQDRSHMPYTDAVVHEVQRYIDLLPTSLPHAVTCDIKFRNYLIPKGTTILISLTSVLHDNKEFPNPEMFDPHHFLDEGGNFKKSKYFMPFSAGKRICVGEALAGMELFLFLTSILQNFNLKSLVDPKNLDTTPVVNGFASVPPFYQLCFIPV

[1] = system: HIV-1 viral entry in CEM-SS T cells; experiment: Viral entry assays (BlaM-Vpr, Nef-luciferase); format: cell-based; settings: HIV-1 Vpr-β-lactamase or Nef-luciferase tagged virions
RET = molecular target: T1, RET (Homo sapiens, UniProt P07949); experiment: Kinase profiling at 1 μM (Reaction Biology); format: biochemical; settings: ATP 10 μM
T1 construct: purchased Reaction Biology Corporation
Method: (§1) Profiling was carried out at Reaction Biology Corporation following a protocol described at its website: http://www.reactionbiology.com/webapps/site/. The % data were the average from two determinations. ATP concentration used: 10 μM; Staurosporine was used as the positive control.
(§2) Biochemical assays for all Limk inhibitors and kinase profiling were carried out in Reaction Biology Corporation and followed the protocols described on its website. […] Compounds were tested at 1 μM with duplicate experiments in profiling assays. […] Reactions were carried out at 10 μM ATP, 1 μM substrate cofilin, and 50 nM Limk1 (final concentrations).

ZIPK/DAPK3 = molecular target: T2, ZIPK/DAPK3 (Homo sapiens, UniProt O43293); experiment: Kinase profiling at 1 μM (Reaction Biology); format: biochemical; settings: ATP 10 μM
T2 construct: purchased Reaction Biology Corporation
T2 sequence (O43293 whole entry): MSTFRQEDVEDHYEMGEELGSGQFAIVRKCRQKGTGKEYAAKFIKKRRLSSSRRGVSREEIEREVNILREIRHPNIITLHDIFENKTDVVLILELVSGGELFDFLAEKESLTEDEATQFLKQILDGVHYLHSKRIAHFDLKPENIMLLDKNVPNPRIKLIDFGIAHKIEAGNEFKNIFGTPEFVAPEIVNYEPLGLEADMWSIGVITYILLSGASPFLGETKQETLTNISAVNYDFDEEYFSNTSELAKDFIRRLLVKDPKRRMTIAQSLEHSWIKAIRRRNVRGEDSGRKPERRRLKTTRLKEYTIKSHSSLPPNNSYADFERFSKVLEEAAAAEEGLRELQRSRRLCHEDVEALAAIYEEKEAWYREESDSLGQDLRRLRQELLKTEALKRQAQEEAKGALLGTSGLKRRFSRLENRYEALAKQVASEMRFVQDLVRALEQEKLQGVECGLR
Method: as §1, §2

PLK2 = molecular target: T3, PLK2 (Homo sapiens, UniProt Q9NYY3); experiment: Kinase profiling at 1 μM (Reaction Biology); format: biochemical; settings: ATP 10 μM
T3 construct: purchased Reaction Biology Corporation
Method: as §1, §2

BRAF = molecular target: T4, BRAF (Homo sapiens, UniProt P15056); experiment: Kinase profiling at 1 μM (Reaction Biology); format: biochemical; settings: ATP 10 μM
T4 construct: purchased Reaction Biology Corporation
Method: as §1, §2

TLK1 = molecular target: T5, TLK1 (Homo sapiens, UniProt Q9UKI8); experiment: Kinase profiling at 1 μM (Reaction Biology); format: biochemical; settings: ATP 10 μM
T5 construct: purchased Reaction Biology Corporation
Method: as §1, §2

PKN1/PRK1 = molecular target: T6, PKN1/PRK1 (Homo sapiens, UniProt Q16512); experiment: Kinase profiling at 1 μM (Reaction Biology); format: biochemical; settings: ATP 10 μM
T6 construct: purchased Reaction Biology Corporation
Method: as §1, §2

TESK1 = molecular target: T7, TESK1 (Homo sapiens, UniProt Q15569); experiment: Kinase profiling at 1 μM (Reaction Biology); format: biochemical; settings: ATP 10 μM
T7 construct: purchased Reaction Biology Corporation
T7 sequence (Q15569 whole entry): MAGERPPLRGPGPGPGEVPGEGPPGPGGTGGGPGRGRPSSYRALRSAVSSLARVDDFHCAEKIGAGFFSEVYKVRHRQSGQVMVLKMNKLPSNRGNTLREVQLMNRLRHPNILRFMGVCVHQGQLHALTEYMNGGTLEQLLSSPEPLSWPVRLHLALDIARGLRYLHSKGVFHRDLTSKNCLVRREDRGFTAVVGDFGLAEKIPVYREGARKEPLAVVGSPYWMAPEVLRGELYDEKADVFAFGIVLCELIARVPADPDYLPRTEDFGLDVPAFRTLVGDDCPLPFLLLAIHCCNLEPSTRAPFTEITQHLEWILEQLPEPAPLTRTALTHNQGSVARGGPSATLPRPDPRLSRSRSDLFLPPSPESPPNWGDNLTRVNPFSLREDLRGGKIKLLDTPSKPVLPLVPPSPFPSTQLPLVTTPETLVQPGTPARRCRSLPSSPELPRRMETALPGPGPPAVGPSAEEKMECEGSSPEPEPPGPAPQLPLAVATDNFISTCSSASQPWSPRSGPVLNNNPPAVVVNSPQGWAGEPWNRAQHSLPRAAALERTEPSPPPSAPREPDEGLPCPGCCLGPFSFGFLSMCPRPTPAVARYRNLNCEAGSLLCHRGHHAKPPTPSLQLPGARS
Method: as §1, §2

mTOR/FRAP1 = molecular target: T8, mTOR/FRAP1 (Homo sapiens, UniProt P42345); experiment: Kinase profiling at 1 μM (Reaction Biology); format: biochemical; settings: ATP 10 μM
T8 construct: purchased Reaction Biology Corporation
Method: as §1, §2

CDK5/p35 = molecular target: T9, CDK5/p35 (Homo sapiens, UniProt Q00535); experiment: Kinase profiling at 1 μM (Reaction Biology); format: biochemical; settings: ATP 10 μM
T9 construct: purchased Reaction Biology Corporation
T9 sequence (Q00535 whole entry): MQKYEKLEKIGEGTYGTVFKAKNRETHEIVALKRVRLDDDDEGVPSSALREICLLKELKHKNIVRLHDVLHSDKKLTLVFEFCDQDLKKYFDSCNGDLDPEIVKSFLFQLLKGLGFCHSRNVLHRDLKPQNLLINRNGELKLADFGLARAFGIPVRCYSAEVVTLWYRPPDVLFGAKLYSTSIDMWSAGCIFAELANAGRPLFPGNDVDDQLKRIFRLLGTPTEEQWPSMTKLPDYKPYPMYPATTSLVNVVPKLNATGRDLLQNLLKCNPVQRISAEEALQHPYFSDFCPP
T9 sequence (Q15078 whole entry partner): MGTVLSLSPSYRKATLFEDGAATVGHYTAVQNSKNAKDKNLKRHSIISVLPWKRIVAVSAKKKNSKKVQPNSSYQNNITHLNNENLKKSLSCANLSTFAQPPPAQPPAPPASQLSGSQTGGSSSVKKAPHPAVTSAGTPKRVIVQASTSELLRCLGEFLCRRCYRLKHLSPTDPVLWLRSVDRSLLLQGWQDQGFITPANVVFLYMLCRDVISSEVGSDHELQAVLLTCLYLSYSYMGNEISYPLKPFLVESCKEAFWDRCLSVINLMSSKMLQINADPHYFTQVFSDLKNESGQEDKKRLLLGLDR
Method: as §1, §2

BTK = molecular target: T10, BTK (Homo sapiens, UniProt Q06187); experiment: Kinase profiling at 1 μM (Reaction Biology); format: biochemical; settings: ATP 10 μM
T10 construct: purchased Reaction Biology Corporation
Method: as §1, §2

ERK2/MAPK1 = molecular target: T11, ERK2/MAPK1 (Homo sapiens, UniProt P28482); experiment: Kinase profiling at 1 μM (Reaction Biology); format: biochemical; settings: ATP 10 μM
T11 construct: purchased Reaction Biology Corporation
Method: as §1, §2

PAK2 = molecular target: T12, PAK2 (Homo sapiens, UniProt Q13177); experiment: Kinase profiling at 1 μM (Reaction Biology); format: biochemical; settings: ATP 10 μM
T12 construct: purchased Reaction Biology Corporation
T12 sequence (Q13177 whole entry): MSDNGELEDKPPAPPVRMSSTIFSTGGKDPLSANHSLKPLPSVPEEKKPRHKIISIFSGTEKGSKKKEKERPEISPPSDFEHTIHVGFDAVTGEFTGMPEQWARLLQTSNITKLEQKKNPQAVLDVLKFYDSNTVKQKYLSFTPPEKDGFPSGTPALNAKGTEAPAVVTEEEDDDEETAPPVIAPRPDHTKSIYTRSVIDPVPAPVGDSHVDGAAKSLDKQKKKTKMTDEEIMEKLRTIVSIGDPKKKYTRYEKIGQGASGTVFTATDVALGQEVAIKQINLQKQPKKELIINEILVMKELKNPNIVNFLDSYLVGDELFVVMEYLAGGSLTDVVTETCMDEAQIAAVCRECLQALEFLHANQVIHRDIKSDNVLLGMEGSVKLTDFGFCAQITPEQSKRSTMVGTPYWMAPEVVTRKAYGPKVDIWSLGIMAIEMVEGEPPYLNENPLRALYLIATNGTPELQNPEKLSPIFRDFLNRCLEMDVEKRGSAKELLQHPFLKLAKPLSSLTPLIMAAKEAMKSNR
Method: as §1, §2

MRCKa/CDC42BPA = molecular target: T13, MRCKa/CDC42BPA (Homo sapiens, UniProt Q5VT25); experiment: Kinase profiling at 1 μM (Reaction Biology); format: biochemical; settings: ATP 10 μM
T13 construct: purchased Reaction Biology Corporation
Method: as §1, §2

MEK1 = molecular target: T14, MEK1 (Homo sapiens, UniProt Q02750); experiment: Kinase profiling at 1 μM (Reaction Biology); format: biochemical; settings: ATP 10 μM
T14 construct: purchased Reaction Biology Corporation
Method: as §1, §2

CK1d = molecular target: T15, CK1d (Homo sapiens, UniProt P48730); experiment: Kinase profiling at 1 μM (Reaction Biology); format: biochemical; settings: ATP 10 μM
T15 construct: purchased Reaction Biology Corporation
T15 sequence (P48730 whole entry): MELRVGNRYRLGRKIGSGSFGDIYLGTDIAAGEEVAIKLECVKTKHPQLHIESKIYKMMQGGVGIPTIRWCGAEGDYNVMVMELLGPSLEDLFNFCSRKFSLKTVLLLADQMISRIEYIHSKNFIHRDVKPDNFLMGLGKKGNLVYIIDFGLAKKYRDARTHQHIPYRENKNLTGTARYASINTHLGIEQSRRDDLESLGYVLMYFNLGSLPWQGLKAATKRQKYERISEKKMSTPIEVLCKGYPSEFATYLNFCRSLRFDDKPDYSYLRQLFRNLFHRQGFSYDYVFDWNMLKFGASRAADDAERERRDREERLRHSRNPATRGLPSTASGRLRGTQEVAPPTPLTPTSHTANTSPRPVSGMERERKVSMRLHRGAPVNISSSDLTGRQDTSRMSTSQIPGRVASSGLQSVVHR
Method: as §1, §2

SGK1 = molecular target: T16, SGK1 (Homo sapiens, UniProt O00141); experiment: Kinase profiling at 1 μM (Reaction Biology); format: biochemical; settings: ATP 10 μM
T16 construct: purchased Reaction Biology Corporation
T16 sequence (O00141 whole entry): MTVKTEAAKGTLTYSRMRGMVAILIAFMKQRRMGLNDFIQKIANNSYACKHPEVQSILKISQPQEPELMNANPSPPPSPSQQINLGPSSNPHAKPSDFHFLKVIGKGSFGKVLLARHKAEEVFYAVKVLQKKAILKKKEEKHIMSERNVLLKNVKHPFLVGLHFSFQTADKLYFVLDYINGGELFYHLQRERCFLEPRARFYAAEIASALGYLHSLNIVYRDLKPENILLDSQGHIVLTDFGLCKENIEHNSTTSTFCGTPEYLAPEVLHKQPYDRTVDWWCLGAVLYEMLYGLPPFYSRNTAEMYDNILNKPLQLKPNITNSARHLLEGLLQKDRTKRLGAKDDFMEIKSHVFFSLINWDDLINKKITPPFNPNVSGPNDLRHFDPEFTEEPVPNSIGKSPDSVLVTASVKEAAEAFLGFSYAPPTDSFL
Method: as §1, §2

CAMK2b = molecular target: T17, CAMK2b (Homo sapiens, UniProt Q13554); experiment: Kinase profiling at 1 μM (Reaction Biology); format: biochemical; settings: ATP 10 μM
T17 construct: purchased Reaction Biology Corporation
Method: as §1, §2

CDK2/cyclin A = molecular target: T18, CDK2/cyclin A (Homo sapiens, UniProt P24941); experiment: Kinase profiling at 1 μM (Reaction Biology); format: biochemical; settings: ATP 10 μM
T18 construct: purchased Reaction Biology Corporation
Method: as §1, §2

FAK/PTK2 = molecular target: T19, FAK/PTK2 (Homo sapiens, UniProt Q05397); experiment: Kinase profiling at 1 μM (Reaction Biology); format: biochemical; settings: ATP 10 μM
T19 construct: purchased Reaction Biology Corporation
Method: as §1, §2

MLCK/MYLK = molecular target: T20, MLCK/MYLK (Homo sapiens, UniProt Q15746); experiment: Kinase profiling at 1 μM (Reaction Biology); format: biochemical; settings: ATP 10 μM
T20 construct: purchased Reaction Biology Corporation
Method: as §1, §2

p70S6K/RPS6KB1 = molecular target: T21, p70S6K/RPS6KB1 (Homo sapiens, UniProt P23443); experiment: Kinase profiling at 1 μM (Reaction Biology); format: biochemical; settings: ATP 10 μM
T21 construct: purchased Reaction Biology Corporation
Method: as §1, §2

EPHA3 = molecular target: T22, EPHA3 (Homo sapiens, UniProt P29320); experiment: Kinase profiling at 1 μM (Reaction Biology); format: biochemical; settings: ATP 10 μM
T22 construct: purchased Reaction Biology Corporation
T22 sequence (P29320 21-983): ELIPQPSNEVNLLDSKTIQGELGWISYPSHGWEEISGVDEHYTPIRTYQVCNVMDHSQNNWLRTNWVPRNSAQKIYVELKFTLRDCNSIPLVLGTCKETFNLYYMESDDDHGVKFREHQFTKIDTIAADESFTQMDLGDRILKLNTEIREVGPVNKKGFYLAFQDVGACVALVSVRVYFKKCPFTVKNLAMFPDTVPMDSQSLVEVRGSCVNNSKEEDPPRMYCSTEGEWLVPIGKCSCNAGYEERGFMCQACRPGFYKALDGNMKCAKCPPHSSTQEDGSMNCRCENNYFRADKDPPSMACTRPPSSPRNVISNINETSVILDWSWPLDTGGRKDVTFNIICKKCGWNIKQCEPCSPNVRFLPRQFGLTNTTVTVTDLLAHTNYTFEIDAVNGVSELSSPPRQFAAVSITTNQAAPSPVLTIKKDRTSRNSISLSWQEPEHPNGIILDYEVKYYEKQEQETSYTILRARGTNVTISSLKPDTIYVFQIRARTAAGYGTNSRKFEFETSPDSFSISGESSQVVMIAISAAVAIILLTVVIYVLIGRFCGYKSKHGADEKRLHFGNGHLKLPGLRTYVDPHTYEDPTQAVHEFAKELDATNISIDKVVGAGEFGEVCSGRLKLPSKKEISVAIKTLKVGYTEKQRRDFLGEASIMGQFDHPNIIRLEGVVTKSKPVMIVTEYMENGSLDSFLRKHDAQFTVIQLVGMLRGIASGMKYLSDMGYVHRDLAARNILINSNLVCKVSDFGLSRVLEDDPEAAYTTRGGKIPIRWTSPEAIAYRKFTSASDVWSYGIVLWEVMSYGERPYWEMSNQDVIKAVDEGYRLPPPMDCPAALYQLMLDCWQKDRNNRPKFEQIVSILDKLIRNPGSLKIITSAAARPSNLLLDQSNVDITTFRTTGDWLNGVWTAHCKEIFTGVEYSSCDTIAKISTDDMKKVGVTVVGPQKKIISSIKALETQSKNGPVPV
Method: as §1, §2

ABL1 = molecular target: T23, ABL1 (Homo sapiens, UniProt P00519); experiment: Kinase profiling at 1 μM (Reaction Biology); format: biochemical; settings: ATP 10 μM
T23 construct: purchased Reaction Biology Corporation
Method: as §1, §2

STK33 = molecular target: T24, STK33 (Homo sapiens, UniProt Q9BYT3); experiment: Kinase profiling at 1 μM (Reaction Biology); format: biochemical; settings: ATP 10 μM
T24 construct: purchased Reaction Biology Corporation
Method: as §1, §2

ROCK1 = molecular target: T25, ROCK1 (Homo sapiens, UniProt Q13464); experiment: Kinase profiling at 1 μM (Reaction Biology); format: biochemical; settings: ATP 10 μM
T25 construct: purchased Reaction Biology Corporation
Method: as §1, §2

PKCa = molecular target: T26, PKCa (Homo sapiens, UniProt P17252); experiment: Kinase profiling at 1 μM (Reaction Biology); format: biochemical; settings: ATP 10 μM
T26 construct: purchased Reaction Biology Corporation
Method: as §1, §2

FGFR1 = molecular target: T27, FGFR1 (Homo sapiens, UniProt P11362); experiment: Kinase profiling at 1 μM (Reaction Biology); format: biochemical; settings: ATP 10 μM
T27 construct: purchased Reaction Biology Corporation
Method: as §1, §2

WEE1 = molecular target: T28, WEE1 (Homo sapiens, UniProt P30291); experiment: Kinase profiling at 1 μM (Reaction Biology); format: biochemical; settings: ATP 10 μM
T28 construct: purchased Reaction Biology Corporation
Method: as §1, §2

TAK1 = molecular target: T29, TAK1 (Homo sapiens, UniProt O43318); experiment: Kinase profiling at 1 μM (Reaction Biology); format: biochemical; settings: ATP 10 μM
T29 construct: purchased Reaction Biology Corporation
T29 sequence (O43318 1-303 limits assumed): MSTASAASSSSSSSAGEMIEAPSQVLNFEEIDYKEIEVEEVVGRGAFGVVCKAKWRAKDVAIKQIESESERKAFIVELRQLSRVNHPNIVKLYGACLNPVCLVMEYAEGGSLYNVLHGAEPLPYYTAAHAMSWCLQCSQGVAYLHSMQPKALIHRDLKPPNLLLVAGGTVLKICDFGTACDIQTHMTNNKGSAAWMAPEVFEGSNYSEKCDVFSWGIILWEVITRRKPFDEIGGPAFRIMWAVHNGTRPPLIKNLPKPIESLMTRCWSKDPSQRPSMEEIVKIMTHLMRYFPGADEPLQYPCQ
Method: as §1, §2

TBK1 = molecular target: T30, TBK1 (Homo sapiens, UniProt Q9UHD2); experiment: Kinase profiling at 1 μM (Reaction Biology); format: biochemical; settings: ATP 10 μM
T30 construct: purchased Reaction Biology Corporation
Method: as §1, §2

Limk1 = Limk1 (Homo sapiens, UniProt P53667); experiment: Kinase profiling at 1 μM (Reaction Biology); format: biochemical; set-up: His; purchased Reaction Biology Corporation; host or cells: insect cells; settings: ATP 10 μM
Method: as §1, §2

`Cc1c[nH]c2ncnc(-c3ccc(NC(=O)N(CCO)c4ccccc4)cc3)c12` [Compound 18b, 1-(2-Hydroxyethyl)-3-(4-(5-methyl-7H-pyrrolo[2,3-d]pyrimidin-4-yl)phenyl)-1-phenylurea] showed an inhibition at 0.1 µM (PC-3 cells; 0.1 μM) of 16.5%, an inhibition at 1 µM (PC-3 cells; 1 μM) of 74% and an inhibition at 10 µM (PC-3 cells; 10 μM) of 77.5%. The “P450 % inh. at 10 μM 2C9” value (P450 2C9) was 14%.
For `COC(=O)c1ccc2[nH]c(C3CCN(c4ncnc5[nH]cc(Cl)c45)CC3)nc2c1` [Compound R10015, Methyl 2-(1-(5-chloro-7H-pyrrolo[2,3-d]pyrimidin-4-yl)piperidin-4-yl)-1Hbenzo[d]imidazole-5-carboxylate], the viral entry [1] was “did not significantly inhibit”, the activity at 1 µM (RET) was 46.5% and the activity at 1 µM (ZIPK/DAPK3) was 98.5%. For the same compound, the activity at 1 µM (PLK2) was 103%, the activity at 1 µM (BRAF) was 91.9% and the activity at 1 µM (TLK1) was 98.5%. The activity at 1 µM (PKN1/PRK1) was 58.6%, the activity at 1 µM (TESK1) was 90.2% and the activity at 1 µM (mTOR/FRAP1) was 100%. It also gave an activity at 1 µM (CDK5/p35) of 85.5%, an activity at 1 µM (BTK) of 90.2% and an activity at 1 µM (ERK2/MAPK1) of 87.2%. It also gave an activity at 1 µM (PAK2) of 98.2%, an activity at 1 µM (MRCKa/CDC42BPA) of 96.5% and an activity at 1 µM (MEK1) of 75.6%. The activity at 1 µM (CK1d) was 85%, the activity at 1 µM (SGK1) was 61% and the activity at 1 µM (CAMK2b) was 90.8%. For the same compound, the activity at 1 µM (CDK2/cyclin A) was 82.7%, the activity at 1 µM (FAK/PTK2) was 81.5% and the activity at 1 µM (MLCK/MYLK) was 83.3%. It also gave an activity at 1 µM (p70S6K/RPS6KB1) of 10%, an activity at 1 µM (EPHA3) of 91.1% and an activity at 1 µM (ABL1) of 89.2%. It also gave an activity at 1 µM (STK33) of 56.5%, an activity at 1 µM (ROCK1) of 42.3% and an activity at 1 µM (PKCa) of 47.5%. The activity at 1 µM (FGFR1) was 86.5%, the activity at 1 µM (WEE1) was 97.2% and the activity at 1 µM (TAK1) was 82.4%. For the same compound, the activity at 1 µM (TBK1) was 82% and the activity at 1 µM (Limk1) was 6.4%.

Reference: patent publication US20190292189A1, “LIM KINASE INHIBITORS” (VIRONGY, LLC, priority 2016, published 2019)
